Laboratory results as given in patent US8101605B2, “SHIP1 modulators and methods related thereto” (Aquinox Pharmaceuticals Inc., priority 2009, dated 2012).

Target: T1, His-hSHIP1 enzyme (Homo sapiens, UniProt Q92835)
T1 sequence (Q92835 1-1189): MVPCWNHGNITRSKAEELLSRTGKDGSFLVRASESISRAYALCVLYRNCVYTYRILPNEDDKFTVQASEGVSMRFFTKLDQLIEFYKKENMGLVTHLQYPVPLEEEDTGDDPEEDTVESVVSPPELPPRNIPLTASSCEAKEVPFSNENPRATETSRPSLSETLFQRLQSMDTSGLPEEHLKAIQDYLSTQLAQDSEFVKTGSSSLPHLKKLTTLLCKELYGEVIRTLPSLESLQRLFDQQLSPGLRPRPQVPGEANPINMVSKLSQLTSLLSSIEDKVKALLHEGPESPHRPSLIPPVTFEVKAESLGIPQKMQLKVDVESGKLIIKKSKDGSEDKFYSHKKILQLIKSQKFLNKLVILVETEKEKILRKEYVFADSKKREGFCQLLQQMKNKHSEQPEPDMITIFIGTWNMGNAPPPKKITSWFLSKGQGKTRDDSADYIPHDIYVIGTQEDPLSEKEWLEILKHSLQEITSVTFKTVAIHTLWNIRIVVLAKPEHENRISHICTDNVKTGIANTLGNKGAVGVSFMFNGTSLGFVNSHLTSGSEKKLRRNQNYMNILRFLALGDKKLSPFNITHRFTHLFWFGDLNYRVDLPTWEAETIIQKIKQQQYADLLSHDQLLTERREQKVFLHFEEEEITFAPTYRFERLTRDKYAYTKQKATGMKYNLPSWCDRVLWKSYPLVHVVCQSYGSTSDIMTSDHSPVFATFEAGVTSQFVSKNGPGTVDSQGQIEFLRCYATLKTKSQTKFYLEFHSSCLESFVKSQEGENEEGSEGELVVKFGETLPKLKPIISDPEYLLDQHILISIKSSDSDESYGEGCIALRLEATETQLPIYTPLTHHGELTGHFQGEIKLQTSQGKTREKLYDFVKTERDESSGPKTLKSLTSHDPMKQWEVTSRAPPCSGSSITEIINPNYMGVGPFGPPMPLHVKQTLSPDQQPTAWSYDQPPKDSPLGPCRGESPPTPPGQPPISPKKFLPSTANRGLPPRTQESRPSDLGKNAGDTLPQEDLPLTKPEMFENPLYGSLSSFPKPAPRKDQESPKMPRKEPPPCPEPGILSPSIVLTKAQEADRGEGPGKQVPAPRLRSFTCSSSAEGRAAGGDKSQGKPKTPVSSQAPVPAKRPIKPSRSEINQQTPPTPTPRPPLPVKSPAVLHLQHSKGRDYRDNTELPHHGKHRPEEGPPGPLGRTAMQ
Assay: His-hSHIP1 phosphatase activity assay (IP4 substrate, Biomol Green)
Format: biochemical
Settings: percentage increase relative to background; concentrations ≦300 μM
Description: Test compounds were dissolved in 95% ethanol to form stock solutions. Before screening, the stock solutions were diluted with Phosphatase Assay Buffer (20 mM Tris-HCL, 10 mM MgCl2 pH 7.5, 0.02% Tween 20) to form working assay solutions that contained 10% ethanol. The assay was carried out on 96-well microtiter plates using a modified procedure of that reported by Ong et al., Blood 110, 1942-1949, 2007 and Yang et al., Org Lett 7, 1073-1076, 2005, both of which references are incorporated herein by reference in their entirety.
Each reaction contained 5 μL of His-hSHIP1 enzyme (15-20 ng), 10 μL of the substrate, 1,3,4,5-inositol tetrakisphosphate (IP4; 50 μM final), 5 μL of Phosphatase Assay Buffer, and 5 μL of test compound at various concentrations in 10% ethanol (0-300 μM final). Control blanks were also prepared by replacing His-hSHIP1 enzyme, IP4, or test compounds with Phosphatase Assay Buffer. After adding the reaction components in a 96-well microtiter plate on ice, the reaction was mixed by briefly shaking the plate vigorously. The reaction was then incubated at 37° C. for 15 min with gentle shaking followed by addition of 100 μL of Biomol Green Reagent (BIOMOL, PA, USA) to terminate the reaction. The free phosphate released from IP4 by His-hSHIP1 bound to the Biomol Green Reagent, turning the solution green in colour. After incubating the mixture for 20 min at room temperature for colour development, the absorbance was read with a SpectraMax Plus 96-well plate reader (Molecular Devices, Sunnyvale, Calif., USA) at a wavelength of 650 nm.
Percent (%) activation in Table 2 is expressed as a percentage increase relative to background. Scoring is expressed as follows: + (<50%); ++ (≧50% but <65%); +++ (≧65%).

| SMILES | Scoring: percent (%) activation of His-hSHIP1 enzyme |
| --- | --- |
| CNC(=O)c1cc(C(=O)NC)c2c(c1)S(=O)(=O)C[C@@H]1[C@@]3(C)CCCC(C)(C)[C@@H]3CC[C@@]21C [compound 86, (1R,10R,11S,16S)-1,3-N,5-N,11,15,15-hexamethyl-8,8-dioxo-8λ^6-thiatetracyclo[8.8.0.0^2,7.0^11,16]octadeca-2,4,6-triene-3,5-dicarboxamide] | + (<50%) |
| CC1(C)CCC[C@]2(C)[C@H]3CS(=O)(=O)c4cc(O)cc(C(=O)N5CCOCC5)c4[C@]3(C)CC[C@@H]12 [compound 88, (1R,10R,11S,16S)-5-hydroxy-1,11,15,15-tetramethyl-3-[(morpholin-4-yl)carbonyl]-8λ^6-thiatetracyclo-[8.8.0.0^2,7.0^11,16]octadeca-2,4,6-triene-8,8-dione] | + (<50%) |
| COC(=O)CNC(=O)c1cc(O)cc2c1[C@]1(C)CC[C@H]3C(C)(C)CCC[C@]3(C)[C@H]1CS2(=O)=O [compound 90, methyl 2-{[(1R,10R,11S,16S)-5-hydroxy-1,11,15,15-tetramethyl-8,8-dioxo-8λ^6-thiatetracyclo[8.8.0.0^2,7.0^11,16]octadeca-2,4,6-trien-3-yl]formamido}acetate] | + (<50%) |
| CC1(C)CCC[C@]2(C)[C@H]3CS(=O)(=O)c4cc(O)cc(C(=O)NCC(=O)O)c4[C@]3(C)CC[C@@H]12 [compound 91, 2-{[(1R,10R,11S,16S)-5-hydroxy-1,11,15,15-tetramethyl-8,8-dioxo-8λ^6-thiatetracyclo[8.8.0.0^2,7.0^11,16]octadeca-2,4,6-trien-3-yl]formamido}acetic acid] | + (<50%) |
| CC1(C)CCC[C@]2(C)[C@H]3CS(=O)(=O)c4cc(C(=O)NCC(=O)O)cc(O)c4[C@]3(C)CC[C@@H]12 [compound 93, 2-{[(1R,10R,11S,16S)-3-hydroxy-1,11,15,15-tetramethyl-8,8-dioxo-8λ^6-thiatetracyclo[8.8.0.0^2,7.0^11,16]octadeca-2,4,6-trien-5-yl]formamido}acetic acid] | + (<50%) |
| CN1CCN(C(=O)c2cc(O)cc3c2[C@]2(C)CC[C@H]4C(C)(C)CCC[C@]4(C)[C@H]2CS3(=O)=O)CC1 [compound 94, (1R,10R,11S,16S)-5-hydroxy-1,11,15,15-tetramethyl-3-[(4-methylpiperazin-1-yl)carbonyl]-8λ^6-thiatetracyclo[8.8.0.0^2,7.0^11,16]octadeca-2,4,6-triene-8,8-dione] | + (<50%) |
| CONC(=O)c1cc(O)cc2c1[C@]1(C)CC[C@H]3C(C)(C)CCC[C@]3(C)[C@H]1CS2(=O)=O [compound 95, (1R,10R,11S,16S)-5-hydroxy-N-methoxy-1,11,15,15-tetramethyl-8,8-dioxo-8λ^6-thiatetracyclo[8.8.0.0^2,7.0^11,16]octadeca-2,4,6-triene-3-carboxamide] | + (<50%) |
| CONC(=O)c1cc(O)c2c(c1)S(=O)(=O)C[C@@H]1[C@@]3(C)CCCC(C)(C)[C@@H]3CC[C@@]21C [compound 96, (1R,10R,11S,16S)-3-hydroxy-N-methoxy-1,11,15,15-tetramethyl-8,8-dioxo-8λ^6-thiatetracyclo[8.8.0.0^2,7.0^11,16]octadeca-2,4,6-triene-5-carboxamide] | + (<50%) |
| CC1(C)CCC[C@]2(C)[C@H]3CS(=O)(=O)c4cc(C(=O)N5CCC(C(=O)O)CC5)cc(O)c4[C@]3(C)CC[C@@H]12 [compound 98, 1-{[(1R,10R,11S,16S)-3-hydroxy-1,11,15,15-tetramethyl-8,8-dioxo-8λ^6-thiatetracyclo[8.8.0.0^2,7.0^11,16]octadeca-2,4,6-trien-5-yl]carbonyl}piperidine-4-carboxylic acid] | + (<50%) |
| CC1(C)CCC[C@]2(C)[C@H]3CS(=O)(=O)c4cc(O)cc(C(=O)N5CCNCC5)c4[C@]3(C)CC[C@@H]12 [compound 100, (1R,10R,11S,16S)-5-hydroxy-1,11,15,15-tetramethyl-3-[(piperazin-1-yl)carbonyl]-8λ^6-thiatetracyclo[8.8.0.0^2,7.0^11,16]octadeca-2,4,6-triene-8,8-dione] | + (<50%) |
| COc1cc(OCC(=O)O)cc2c1[C@]1(C)CC[C@H]3C(C)(C)CCC[C@]3(C)[C@H]1CS2(=O)=O [compound 104, 2-{[(1R,10R,11S,16S)-3-methoxy-1,11,15,15-tetramethyl-8,8-dioxo-8^6-thiatetracyclo[8.8.0.0^2,7.0^11,16]octadeca-2,4,6-trien-5-yl]oxy}acetic acid] | + (<50%) |
| CC1(C)CCC[C@]2(C)[C@H]3CS(=O)(=O)c4cc(OCC(=O)O)cc(O)c4[C@]3(C)CC[C@@H]12 [compound 105, 2-{[(1R,10R,11S,16S)-3-hydroxy-1,11,15,15-tetramethyl-8,8-dioxo-8^6-thiatetracyclo[8.8.0.0^2,7.0^11,16]octadeca-2,4,6-trien-5-yl]oxy}acetic acid] | + (<50%) |
| COc1cc(O)c(CN2CCOCC2)c2c1[C@]1(C)CC[C@H]3C(C)(C)CCC[C@]3(C)[C@H]1CS2(=O)=O [compound 106, (1R,10R,11S,16S)-5-hydroxy-3-methoxy-1,11,15,15-tetramethyl-6-(morpholin-4-ylmethyl)-8^6-thiatetracyclo[8.8.0.0^2,7.0^11,16]octadeca-2,4,6-triene-8,8-dione] | + (<50%) |

Test system: OPM2 cells
Assay: Inhibition of OPM2 proliferation (BrdU ELISA)
Format: cell-based
Settings: Homo sapiens, OPM-2, 72 hours, read-out: Scoring: % inhibition of OPM2 proliferation
Description: Test compounds were dissolved in 100% DMSO to form stock solutions. Prior to screening, the stock solutions were diluted with complete media (RPMI 1640 containing 10% fetal calf serum, 2 mM L-glutamine and 50 U/mL each of penicillin and streptomycin) to form working assay solutions that contain 0.2% DMSO. The assay was initiated by adding 30,000 OPM2 cells (in 50 μL) to 50 μL of representative compounds at concentrations ranging from 0.03 to 30 μM. The cells were incubated for 72 hours in a humidified CO2 incubator with the addition of 10 μM BrdU for the final 6 hours according to the directions from the Roche BrdU Cell Proliferation ELISA kit used to detect proliferation (Roche, Cat. No. 11 647 229 001). OPM2 cells incubated in 0.1% DMSO in complete media were used as a negative control and the PI3Kα Inhibitor 2 (3-[4-(4-morpholinyl)thieno[3,2-d]pyrimidin-2-yl-phenol, Cayman Chemical, Cat. No. 10010177) was used as a positive control for inhibition of proliferation. At the end of the incubation, the plate containing the labeled cells was centrifuged, the supernatant removed and the cell pellets dried at 60° C. for 1 hour and stored at 4° C. until further analysis. Analysis of BrdU incorporation was done according to the manufacturer's instructions.

| SMILES | inhibition at 30 µM [%] |
| --- | --- |
| CC1(C)CCC[C@]2(C)[C@H]3CS(=O)(=O)c4cc(OCC(=O)O)cc(OCC(=O)O)c4[C@]3(C)CC[C@@H]12 [compound 108, 2-{[(1R,10R,11S,16S)-3-(carboxymethoxy)-1,11,15,15-tetramethyl-8,8-dioxo-8^6-thiatetracyclo[8.8.0.0^2,7.0^11,16]octadeca-2,4,6-trien-5-yl]oxy}acetic acid] | < 25 |
